The source of these data is US9926324B2, “Heteroaromatic compounds as PI3 kinase modulators and methods of use” (Calitor Sciences, LLC, priority 2012, dated 2018).

A short description of data set [1]: Compound stability in human liver microsomes. The format is in vitro ADME. The settings on record: pH 7.4; for half-life at 5 μM: human liver microsomes 0.5 mg protein/mL, compound 5 μM, NADPH 1.0 mM, 37° C., read-out: Human T1/2; for CLint scaled at 5 μM: human liver microsomes, in vivo CLint extrapolated. As to the method:
(§1) Human or rat liver microsomes incubations were conducted in duplicate in polypropylene tubes. The typical incubation mixtures consisted of human or rat liver microsomes (0.5 mg protein/mL), compounds of interest (5 μM) and NADPH (1.0 mM) in a total volume of 200 μL potassium phosphate buffer (PBS, 100 mM, pH=7.4). Compounds were dissolved in DMSO and diluted with PBS such that the final concentration of DMSO was 0.05%. The enzymatic reactions were commenced with the addition of […] after a 3-min preincubation and incubated in a water bath open to the air at 37° C. Reactions were terminated at various time points (0, 5, 10, 15, 30, 60 min) by adding equal volume of ice-cold acetonitrile. The samples were stored at −80° C. until LC/MS/MS assays.
(§2) The concentrations of compounds in the incubation mixtures of human or rat liver microsomes were determined by a LC/MS/MS method. The ranges of the linearity in the concentration range were determined for each tested compounds.
(§3) A parallel incubation was performed using denatured microsomes as the negative control, and reactions were terminated at various time points (0, 15, 60 min) after incubation at 37° C.
(§4) Dextromethorphan (70 μM) was selected as the positive control, and reactions were terminated at various time points (0, 5, 10, 15, 30, 60 min) after incubation at 37° C. Both positive and negative control samples were included in each assay to ensure the integrity of the microsomal incubation system.
(§5) The concentrations of compounds in human or rat liver microsome incubations were plotted as a percentage of the relevant zero time point control for each reaction. The in vivo CLint were extrapolated (ref: Naritomi Y, Terashita S, Kimura S, Suzuki A, Kagayama A, Sugiyama Y. Prediction of human hepatic clearance from in vivo animal experiments and in vitro metabolic studies with liver microsomes from animals and humans. Drug Metabolism and Disposition 2001, 29: 1316-1324).

Data set [2] can be described thus: Compound stability in rat liver microsomes. The format is in vitro ADME. The settings on record: pH 7.4; for half-life at 5 μM: rat liver microsomes 0.5 mg protein/mL, compound 5 μM, NADPH 1.0 mM, 37° C., read-out: Rat T1/2; for CLint scaled at 5 μM: rat liver microsomes, in vivo CLint extrapolated. As to the method: as §1, §2, §3, §4, §5
The nature of data set [3]: Pharmacokinetic profiles in rats after intravenous and oral administration. It counts as in vivo. To be noted: for F: oral dose generally 5 or 10 mg/kg; for AUC(0-t) / half-life / Vd: rat, plasma; for Vd: read-out: Vss. As to the method: The compounds disclosed herein are assessed in pharmacokinetic studies in mice, rats, dogs or monkeys. The compounds are administered as a water solution, 2% HPMC+1% TWEEN® 80 in water solution, 5% DMSO+5% solutol in saline, 4% MC suspension or capsule. For the intravenous administration, the animals are generally given at 1 or 2 mg/kg dose. For the oral (p.o.) dosing, mice and rats are generally given 5 or 10 mg/kg dose, and dogs and monkeys are generally given 10 mg/kg dose. The blood samples (0.3 mL) are drawn at 0.25, 0.5, 1.0, 2.0, 3.0, 4.0, 6.0, 8.0, 12 and 24 h time points or 0.083, 0.25, 0.5, 1.0, 2.0, 4.0, 6.0, 8.0 and 24 h time points and centrifuged at 3,000 or 4000 rpm for 2 to 10 min. The plasma solutions are collected, stored at −20° C. or −70° C. until analyzed by LC/MS/MS as described above.

Another data set deals with T1, mTOR (h) (Homo sapiens, UniProt P42345).
T1 construct: purchased Millipore UK Ltd (assay service)
As to the kind of experiment: mTOR (h) kinase assay (33P-ATP, filter). The format is biochemical. As to the method:
mTOR (h) is incubated with 50 mM HEPES pH 7.5, 1 mM EDTA, 0.01% Tween 20, 2 mg/mL substrate, 3 mM Manganese Chloride and [γ-^33P-ATP] (specific activity approx. 500 cpm/pmol, concentration as required). The reaction is initiated by the addition of the MnATP mix. After incubation for 40 minutes at room temperature, the reaction is stopped by the addition of 3% phosphoric acid solution. 10 μL of the reaction is then spotted onto a P30 filtermat and washed three times for 5 minutes in 75 mM phosphoric acid and once in methanol prior to drying and scintillation counting.
(§6) The kinase assays described herein were performed at Millipore UK Ltd, Dundee Technology Park, Dundee DD2 1SW, UK.

Another data set has as its target T2, PI3K p110α/p85α (h) (Homo sapiens, UniProt P42336).
T2 construct: purchased Millipore UK Ltd (assay service)
As to the kind of experiment: PI3K p110α/p85α (h) non-radioactive HTRF assay. It counts as biochemical. As to the method: PI3K p110α/p85α (h) is incubated in assay buffer containing 10 μM phosphatidylinositol 4,5-bisphosphate and MgATP (concentration as required). The reaction is initiated by the addition of the ATP solution. After incubation for 30 minutes at room temperature, the reaction is stopped by the addition of stop solution containing EDTA and biotinylated phosphatidylinositol-3,4,5-trisphosphate. Finally, detection buffer is added, which contains europium-labelled anti-GST monoclonal antibody, GST-tagged GRP1 PH domain and streptavidin allophycocyanin. The plate is then read in timeresolved fluorescence mode and the homogenous time-resolved fluorescence (HTRF) signal is determined according to the formula HTRF=10000×(Em665 nm/Em620 nm).
as §6

For another data set, the system named is U87MG glioblastoma cells. As to the kind of experiment: Tumor xenograft model (U87MG), tumor growth inhibition. It counts as in vivo, athymic nude mice. The settings on record: 14 days. As to the method: The efficacy of compounds disclosed herein was evaluated in a standard murine model of tumorigenesis. Human tumor cells (U87MG glioblastoma cells from ATCC) were expended in culture, harvested, and injected subcutaneously onto the rear flank of 6-7 week old female athymic nude mice (BALB/cA nu/nu, Hunan SLAC Laboratory Animal, Co.) (n=6-10 for vehicle group and for each dosing group). When tumors reached a volume of 100-250 mm^3, animals were randomly divided into vehicle control (for example, 5% DMSO+70% Captisol® (30%), 7% HCl (pH1), 18% Captisol® (30%); or 7% DMSO, 7% HCl (pH1), 70% Captisol® (30%), 16% Captisol® (30%), or the like) and compound groups. Subsequent administration of compound by oral gavage begins anywhere from day 0 to day 15 post tumor cell challenge and generally continues with once a day for the duration of the experiment.
Progression of tumor growth is assessed by tumor volumes and recorded as a function of time. The long (L) and short (W) axes of the subcutaneous tumors were measured with calipers twice weekly, and the tumor volume (TV) calculated as (L×W^2)/2). TGI was calculated from the difference between the median tumor volumes of vehicle-treated and drug-treated mice, expressed as a percentage of the median tumor volume of the vehicle-treated control group, by the following relation:
Initial statistical analysis is done by repeated measures analysis of variance (RMANOVA), followed by Scheffe psot hoc testing for multiple comparisons. Vehicle alone (5% DMSO+70% Captisol® (30%), 7% HCl (pH1), 18% Captisol® (30%); or 7% DMSO, 7% HCl (pH1), 70% Captisol® (30%), 16% Captisol® (30%), or the like) is the negative control.

Like-named read-outs stand apart in the source and are kept apart here.

T2 sequence (P42336 whole entry): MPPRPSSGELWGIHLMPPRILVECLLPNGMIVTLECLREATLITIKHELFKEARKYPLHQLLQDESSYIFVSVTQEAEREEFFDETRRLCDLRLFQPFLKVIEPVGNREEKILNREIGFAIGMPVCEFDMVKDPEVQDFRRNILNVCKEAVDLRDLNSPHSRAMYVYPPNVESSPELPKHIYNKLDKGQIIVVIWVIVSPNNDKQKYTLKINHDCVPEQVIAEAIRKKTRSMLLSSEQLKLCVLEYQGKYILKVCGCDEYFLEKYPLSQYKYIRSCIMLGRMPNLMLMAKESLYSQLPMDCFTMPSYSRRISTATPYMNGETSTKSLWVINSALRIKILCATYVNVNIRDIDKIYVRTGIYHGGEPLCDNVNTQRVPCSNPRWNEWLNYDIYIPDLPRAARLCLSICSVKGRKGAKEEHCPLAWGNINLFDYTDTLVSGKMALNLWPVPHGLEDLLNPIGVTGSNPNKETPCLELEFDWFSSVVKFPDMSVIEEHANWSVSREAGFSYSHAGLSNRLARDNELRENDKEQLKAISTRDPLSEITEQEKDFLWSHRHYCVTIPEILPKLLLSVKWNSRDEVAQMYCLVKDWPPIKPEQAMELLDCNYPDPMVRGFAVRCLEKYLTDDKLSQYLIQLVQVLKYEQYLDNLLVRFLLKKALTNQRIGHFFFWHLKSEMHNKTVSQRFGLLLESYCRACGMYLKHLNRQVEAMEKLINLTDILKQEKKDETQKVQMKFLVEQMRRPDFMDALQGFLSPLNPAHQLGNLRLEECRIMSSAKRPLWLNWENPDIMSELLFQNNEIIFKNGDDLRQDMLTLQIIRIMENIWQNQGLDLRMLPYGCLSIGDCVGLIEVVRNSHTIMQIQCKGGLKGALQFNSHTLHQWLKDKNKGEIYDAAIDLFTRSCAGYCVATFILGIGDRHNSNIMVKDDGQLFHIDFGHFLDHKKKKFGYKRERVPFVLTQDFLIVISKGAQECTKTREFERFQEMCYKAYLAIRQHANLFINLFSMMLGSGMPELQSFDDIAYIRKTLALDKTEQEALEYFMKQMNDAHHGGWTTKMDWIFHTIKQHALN
T2 sequence (P27986 whole entry partner): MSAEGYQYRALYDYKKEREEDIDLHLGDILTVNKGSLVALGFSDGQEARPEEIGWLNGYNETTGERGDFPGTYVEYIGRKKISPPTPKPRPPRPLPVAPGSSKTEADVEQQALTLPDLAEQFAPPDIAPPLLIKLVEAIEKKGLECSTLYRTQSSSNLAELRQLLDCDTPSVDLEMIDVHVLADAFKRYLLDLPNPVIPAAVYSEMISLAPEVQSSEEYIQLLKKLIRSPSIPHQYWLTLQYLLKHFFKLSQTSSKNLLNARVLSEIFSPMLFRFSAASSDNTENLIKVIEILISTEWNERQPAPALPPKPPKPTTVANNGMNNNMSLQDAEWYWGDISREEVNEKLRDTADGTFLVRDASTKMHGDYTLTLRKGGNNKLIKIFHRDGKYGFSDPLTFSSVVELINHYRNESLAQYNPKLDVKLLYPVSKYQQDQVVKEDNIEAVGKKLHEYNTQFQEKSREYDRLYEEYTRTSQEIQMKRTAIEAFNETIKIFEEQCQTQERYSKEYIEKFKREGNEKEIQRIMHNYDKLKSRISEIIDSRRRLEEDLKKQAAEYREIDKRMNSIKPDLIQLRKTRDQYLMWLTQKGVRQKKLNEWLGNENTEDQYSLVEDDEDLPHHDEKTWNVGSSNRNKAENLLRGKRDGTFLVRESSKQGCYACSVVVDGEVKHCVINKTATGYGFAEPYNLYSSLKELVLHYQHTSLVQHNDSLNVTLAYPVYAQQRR

As for `C#Cc1cnc2ccc(-c3cnc(OC)c(NS(=O)(=O)c4ccc(F)cc4)c3)nn12` [Ex. 1, N-(5-(3-ethynylimidazo[1,2-b]pyridazin-6-yl)-2-methoxypyridin-3-yl)-4-fluorobenzenesulfonamide], in data set [1], the half-life at 5 μM worked out at 2.69 h and the CLint scaled at 5 μM is 10.8 mL/min/kg. Moreover, in data set [2], the half-life at 5 μM is 1.62 h and the CLint scaled at 5 μM was 25.5 mL/min/kg. In data set [3] (iv dose 1 mg/kg), this molecule showed an F of 96.0%. In data set [3] (iv dosing 1 mg/kg), the Cl/F was 2.33 mL/min/kg, the AUC(0-t) was found to be 6540 ng·h/mL, the half-life was 6.39 h and the Vd amounted to 1 L/kg. The same molecule had an IC50 against mTOR (h) of 23 nM. The IC50 on PI3K p110α/p85α (h) came to 14 nM.
As to `COc1ncc(-c2ccc3ncc(C#CCO)n3n2)cc1NS(=O)(=O)c1ccc(F)cc1` [Ex. 2, 4-fluoro-N-(5-(3-(3-hydroxyprop-1-yn-1-yl)imidazo[1,2-b]pyridazin-6-yl)-2-methoxypyridin-3-yl)benzenesulfonamide], the F in data set [3] (iv dose 2 mg/kg) stood at 56.1%. Moreover, in data set [3] (iv dosing 2 mg/kg), the Cl/F stood at 1.67 mL/min/kg, the AUC(0-t) turned out to be 20700 ng·h/mL, the half-life is 3.42 h and the Vd turned out to be 0.22 L/kg. The IC50 against mTOR (h) was found to be 29 nM. Further, on PI3K p110α/p85α (h), the IC50 amounted to 6 nM. In addition, the “TGI % U87MG” value with U87MG glioblastoma cells (1 mg/kg oral gavage) was found to be 6%. For the same molecule, in the data set on U87MG glioblastoma cells (3 mg/kg oral gavage), the “TGI % U87MG” value is listed as 21%. Also, in the data set with U87MG glioblastoma cells (10 mg/kg oral gavage), the “TGI % U87MG” value was found to be 35%.
On to `COc1ncc(-c2ccc3ncc(C#CC(C)O)n3n2)cc1NS(=O)(=O)c1ccc(F)cc1` (centres unmarked) [Ex. 3, 4-fluoro N (5 (3 (3 hydroxybut-1-yn-1-yl)imidazo[1,2-b]pyridazin-6-yl)-2-methoxypyridin-3-yl)benzenesulfonamide], for which, in data set [1], the half-life at 5 μM was determined as 2.4 h and the CLint scaled at 5 μM was 12.1 mL/min/kg. In data set [2], the half-life at 5 μM turned out to be 0.843 h and the CLint scaled at 5 μM was 49.1 mL/min/kg. The F in data set [3] (iv dose 2 mg/kg) is 61.5%. Further, in data set [3] (iv dosing 2 mg/kg), the Cl/F stood at 1.2 mL/min/kg, the AUC(0-t) was 29000 ng·h/mL, the half-life was 3.11 h and the Vd came to 0.16 L/kg. This molecule also showed an IC50 against mTOR (h) of 16 nM. Further, the IC50 on PI3K p110α/p85α (h) was 12 nM.
For `COc1ncc(-c2ccc3ncc(C#CC(C)(C)O)n3n2)cc1NS(=O)(=O)c1ccc(F)cc1` [Ex. 4, 4-fluoro-N-(5-(3-(3-hydroxy-3-methylbut-1-yn-1-yl)imidazo[1,2-b]pyridazin-6-yl)-2-methoxypyridin-3-yl)benzenesulfonamide], the half-life at 5 μM came to 1.87 h in data set [1] and 0.666 h in data set [2]. Besides, the CLint scaled at 5 μM in data set [1] is 15.5 mL/min/kg; in data set [2], 62.1 mL/min/kg. The IC50 on mTOR (h) was found to be 19 nM; on PI3K p110α/p85α (h) it was 41 nM.
The molecule `C#Cc1cnc2ccc(-c3cnc(Cl)c(NS(=O)(=O)c4ccc(F)cc4)c3)nn12` [Ex. 7, N-(2-chloro-5-(3-ethynylimidazo[1,2-b]pyridazin-6-yl)pyridin-3-yl)-4-fluorobenzenesulfonamide] registered a F in data set [3] (iv dose 2 mg/kg) of 95.4%. For the same molecule, in data set [3] (iv dosing 2 mg/kg), the Cl/F is 0.67 mL/min/kg, the AUC(0-t) was 48100 ng·h/mL, the half-life is 3.19 h and the Vd was 0.17 L/kg. The IC50 against mTOR (h) was found to be 24 nM. Further, the IC50 at PI3K p110α/p85α (h) amounted to 20 nM.
On to `C#Cc1cnc2ccc(-c3cnc(OC)c(NS(=O)(=O)c4ccc(F)cc4F)c3)nn12` [Ex. 8, N-(5-(3-ethynylimidazo[1,2-b]pyridazin-6-yl)-2-methoxypyridin-3-yl)-2,4-difluorobenzenesulfonamide], for which, in data set [1], the half-life at 5 μM is 4.04 h and the CLint scaled at 5 μM was 7.17 mL/min/kg. Moreover, in data set [2], the half-life at 5 μM was determined as 1.25 h and the CLint scaled at 5 μM is 33.2 mL/min/kg. Besides, the F in data set [3] (iv dose 2 mg/kg) came out at 115.1%. In data set [3] (iv dosing 2 mg/kg), the Cl/F was 2.17 mL/min/kg, the AUC(0-t) was found to be 16600 ng·h/mL, the half-life is 3.02 h and the Vd stood at 0.37 L/kg. The molecule further had an IC50 against mTOR (h) of 12 nM. Moreover, the IC50 at PI3K p110α/p85α (h) is 6 nM.

For orientation: CLint scaled means a measure of how fast metabolising enzymes remove a compound, apart from limits set by blood flow. The AUC(0-t) is the area under the concentration-time curve up to a stated or last time point. A higher AUC(0-t) goes with high exposure. A word on the IC50: it is the concentration needed to halve the response being measured.
